Assay results: US5225528A, “Cyclic hexapeptide oxytocin antagonists” (priority 1990, dated 1993)
Where two headings read alike, the source gives them in different places. Numbered stars: 1 amine (or outer) side, 2 acyl side, 3 side chain; on linkers, the order of the positions; unused ones are H or OH. Square brackets hold non-standard residues; d marks the D form. Peptide text beside a SMILES is read from it. * marks the point of attachment. dNMeY = CN[C@H](Cc1ccc(O)cc1)C(=O)O; X3 = O=C([C@@H]1C=CCCN1[*:1])[*:2]; X1 = O=C([C@H]1C=CCCN1[*:1])[*:2]; dNMeF = CN[C@H](Cc1ccccc1)C(=O)O; hPhe = N[C@@H](CCc1ccccc1)C(=O)O; dOrn = NCCC[C@@H](N)C(=O)O; Pip = O=C(O)[C@@H]1CCCCN1; dPip = O=C(O)[C@H]1CCCCN1; ClZ = O=C(OCc1ccccc1Cl)*; Orn = NCCC[C@H](N)C(=O)O; Cbz = O=C(OCc1ccccc1)*; Bn = c1ccc(C*)cc1

Legend:
[1] = target: T1, uterine OT receptors (Rattus norvegicus, UniProt P70536); experiment: [^3 H]OT binding to uterine OT receptors, crude membrane preparation of uteri from DES-treated rats; details: for IC50: rat uterus membranes, 1 nM [^3 H]OT, read-out: Receptor Binding Results IC50 (nM) [^3 H]OT; for inhibition at 1 µM / inhibition at 0.1 µM: 1 h, read-out: [^3 H]OT: percent inhibition of radioligand at the given concentration; for inhibition at 1 µM: @ 1,000 (nM); for inhibition at 0.1 µM: @ 100 (nM)
T1 construct: from tissue; host or cells: uterus of DES-treated rats, crude membranes
T1 sequence (P70536 1-388): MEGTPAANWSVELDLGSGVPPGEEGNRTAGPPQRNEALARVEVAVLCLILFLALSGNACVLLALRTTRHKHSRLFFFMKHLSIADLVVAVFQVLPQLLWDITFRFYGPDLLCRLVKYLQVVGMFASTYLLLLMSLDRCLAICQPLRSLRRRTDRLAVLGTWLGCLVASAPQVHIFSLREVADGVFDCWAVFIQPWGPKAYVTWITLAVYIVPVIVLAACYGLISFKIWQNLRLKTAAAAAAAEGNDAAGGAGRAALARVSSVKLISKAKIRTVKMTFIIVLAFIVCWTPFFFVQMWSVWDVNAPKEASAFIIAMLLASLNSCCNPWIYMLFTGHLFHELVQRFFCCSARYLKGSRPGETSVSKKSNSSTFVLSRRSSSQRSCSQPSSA
Experimental: Competition studies were conducted at equilibrium (60 minutes; 22° C.) using 1 nM [^3 H]OT in the following assay buffer: 50 mM Tris-HCl, 5 mM MgCl2, and 0.1% BSA, pH 7.4.

[2] = target: T2, AVP-V1 sites (Rattus norvegicus, UniProt P30560); experiment: [^3 H]AVP binding to crude membrane preparation of male rat liver (AVP-V1 sites)
T2 construct: crude membrane preparation of male rat liver (AVP-V1 sites); from tissue; host or cells: male rat liver, crude membranes
T2 sequence (P30560 whole entry): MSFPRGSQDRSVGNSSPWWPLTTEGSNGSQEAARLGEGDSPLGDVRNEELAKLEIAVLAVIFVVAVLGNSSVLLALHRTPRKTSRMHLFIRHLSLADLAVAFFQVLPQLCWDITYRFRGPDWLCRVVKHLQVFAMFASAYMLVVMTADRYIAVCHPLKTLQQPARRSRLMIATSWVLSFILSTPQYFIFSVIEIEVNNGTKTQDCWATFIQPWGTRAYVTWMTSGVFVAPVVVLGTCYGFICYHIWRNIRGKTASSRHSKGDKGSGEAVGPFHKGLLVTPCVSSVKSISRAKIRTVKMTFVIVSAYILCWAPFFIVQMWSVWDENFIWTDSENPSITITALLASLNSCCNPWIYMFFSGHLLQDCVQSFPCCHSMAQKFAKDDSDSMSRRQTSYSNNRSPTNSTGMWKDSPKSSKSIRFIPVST
Experimental: (§1) Nonspecific binding (5-10% of the total binding) was determined using 10 μM unlabeled AVP, and the binding reaction was terminated by filtration as described above for the [^3 H]OT binding assay.

[3] = target: T3, AVP-V2 sites (Rattus norvegicus, UniProt Q00788); experiment: [^3 H]AVP binding to crude membrane preparation of male rat kidney medulla (AVP-V2 sites)
T3 construct: male rat liver (AVP-V1 sites) or kidney medulla (AVP-V2 sites); from tissue; host or cells: male rat kidney medulla, crude membranes
T3 sequence (Q00788 whole entry): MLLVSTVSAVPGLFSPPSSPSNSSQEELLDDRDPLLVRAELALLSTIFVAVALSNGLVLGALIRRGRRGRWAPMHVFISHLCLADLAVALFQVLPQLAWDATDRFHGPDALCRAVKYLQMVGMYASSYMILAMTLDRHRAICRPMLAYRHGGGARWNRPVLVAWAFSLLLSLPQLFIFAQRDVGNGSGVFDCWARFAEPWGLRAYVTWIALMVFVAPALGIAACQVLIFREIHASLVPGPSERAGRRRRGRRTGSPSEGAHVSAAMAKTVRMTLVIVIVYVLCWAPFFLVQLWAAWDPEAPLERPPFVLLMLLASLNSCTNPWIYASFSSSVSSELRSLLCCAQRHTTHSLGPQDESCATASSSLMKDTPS
Experimental: as §1

[4] = Receptor Binding Results IC50 (nM) [^3 H]-AVP-V1
[5] = rat kidney medulla membranes, 2 nM [^3 H]AVP, read-out: Receptor Binding Results IC50 (nM) [^3 H]-AVP-V2
[6] = read-out: Receptor Binding Results IC50 (nM) [^3 H]-AVP-V1
[7] = read-out: Receptor Binding Results IC50 (nM) [^3 H]-AVP-V2

| IC50 [2, 6] [nM] | IC50 [3, 7] [nM] | SMILES | IC50 [1] [nM] | IC50 [2, 4] [nM] | IC50 [3, 5] [nM] | inhibition at 1 µM [1] [%] | inhibition at 0.1 µM [1] [%] | IC50 ([3]; Receptor Binding Results IC50 (nM) [^3 H]-AVP-V2) [nM] |
| --- | --- | --- | --- | --- | --- | --- | --- | --- |
|  |  | CC[C@H](C)[C@@H]1NC(=O)[C@@H](Cc2ccccc2)NC(=O)[C@@H]2CCCN2C(=O)[C@@H](Cc2ccccc2)N(C)C(=O)[C@H]2C=CCCN2C(=O)[C@H]2CCCCN2C1=O [Example 22, Cyclo[D-Phenylalanyl-L-isoleucyl-D-pipecolyl-D-(3,4-Dehydro)-pipecolyl-D-(N^α methyl)phenylalanyl-L-Prolyl]] (cyclo(I[dPip][X1][dNMeF]P[dF])) | 2400 | > 10000 | > 10000 |  |  |  |
|  |  | CC[C@H](C)[C@@H]1NC(=O)[C@@H](Cc2ccccc2)NC(=O)[C@@H]2CCCN2C(=O)[C@@H](Cc2ccccc2)N(C)C(=O)[C@@H]2C=CCCN2C(=O)[C@H]2CCCCN2C1=O [Example 23, Cyclo[D-phenylanyl-L-isoleucyl-D-pipecolyl-L-(3,4-dehydro)-pipecolyl-D-(N^α methyl)phenylalanyl-L-prolyl]] (cyclo(I[dPip][X3][dNMeF]P[dF])) | 625 | > 10000 | > 10000 |  |  |  |
|  |  | CC[C@H](C)[C@@H]1NC(=O)[C@@H](Cc2ccccc2)NC(=O)[C@@H]2CCCN2C(=O)[C@@H](Cc2ccccc2)N(C)C(=O)[C@@H]2CCCCN2C(=O)[C@H]2C=CCCN2C1=O [Example 24, Cyclo[D-phenylanyl-L-isoleucyl-D-(3,4-dehydro)-pipecolyl-L-pipecolyl-D-(N^α methyl)phenyalanyl-L-prolyl]] (cyclo(I[X1][Pip][dNMeF]P[dF])) | 640 | > 10000 | 10000 |  |  |  |
| 3000 | 3900 | CC[C@H](C)[C@@H]1NC(=O)[C@@H](Cc2ccccc2)NC(=O)[C@@H]2CCCN2C(=O)[C@@H](Cc2c[nH]c3ccccc23)NC(=O)[C@@H]2CCCCN2C(=O)[C@H]2CCCCN2C1=O [Example 25, Cyclo[D-phenylalanyl-L-isoleucyl-D-pipecolyl-L-pipecolyl-D-trytophanyl-L-prolyl]] (cyclo(I[dPip][Pip][dW]P[dF])) | 120 |  |  |  |  |  |
|  |  | CC[C@H](C)[C@@H]1NC(=O)[C@@H](Cc2ccccc2)NC(=O)[C@@H]2CCCN2C(=O)[C@@H](CCCCNC(=O)OCc2ccccc2Cl)NC(=O)[C@@H]2CCCCN2C(=O)[C@H]2CCCCN2C1=O [Example 26, Cyclo[D-phenylalanyl-L-isoleucyl-D-pipecolyl-L-pipecolyl-D-(2-chlorocarbobenzyloxy)-lysyl-L-prolyl]] (cyclo(I[dPip][Pip][dK](ClZ)P[dF])) |  | 10000 | 10000 | 86 |  |  |
|  |  | CC[C@H](C)[C@@H]1NC(=O)[C@@H](Cc2ccccc2)NC(=O)[C@@H]2CCCN2C(=O)[C@@H](CCCNC(=O)OCc2ccccc2)NC(=O)[C@@H]2CCCCN2C(=O)[C@H]2CCCCN2C1=O [Example 27, Cyclo[D-phenylalanyl-L-isoleucyl-D-pipecolyl-L-pipecolyl-D-(carbobenzyloxy)-ornithyl-L-prolyl]] (cyclo(I[dPip][Pip][dOrn](Cbz)P[dF])) |  | 10000 | 10000 | 79 |  |  |
|  |  | CC[C@H](C)[C@@H]1NC(=O)[C@@H](Cc2ccccc2)NC(=O)[C@@H]2CCCN2C(=O)[C@@H](Cc2ccc(OCc3ccccc3)cc2)N(C)C(=O)[C@@H]2CCCCN2C(=O)[C@H]2CCCCN2C1=O [Example 28, Cyclo[D-phenylalanyl-L-isoleucyl-D-pipecolyl-L-pipecolyl-D-(N^α methyl-O-Benzyl)-tyrosyl-L-prolyl]] (cyclo(I[dPip][Pip][dNMeY](Bn)P[dF])) |  | > 10000 | 10000 |  | 28 |  |
|  |  | CC[C@H](C)[C@@H]1NC(=O)[C@@H](Cc2c[nH]c3ccccc23)NC(=O)[C@@H]2CCCN2C(=O)[C@@H](Cc2c[nH]c3ccccc23)NC(=O)[C@H](CCCCNC(=O)OCc2ccccc2)NC(=O)[C@H]2CCCCN2C1=O [Example 29, Cyclo[D-tryptophanyl-L-isoleucyl-D-pipecolyl-L-(carbobenzloxy)lysyl-D-tryptophanyl-L-prolyl]] (cyclo(I[dPip]K(Cbz)[dW]P[dW])) |  | > 10000 | > 10000 |  | 32 |  |
| 12000 | 747 | CC[C@H](C)[C@@H]1NC(=O)[C@@H](Cc2c[nH]c3ccccc23)NC(=O)[C@@H]2CCCN2C(=O)[C@@H](Cc2ccccc2)N(C)C(=O)[C@@H]2CCCCN2C(=O)[C@H]2CCCCN2C1=O [Example 30, Cyclo[D-tryptophanyl-L-isoleucyl-D-pipecolyl-L-pipecolyl-D(N^α methyl)phenylalanyl-L-prolyl]] (cyclo(I[dPip][Pip][dNMeF]P[dW])) | 20 |  |  |  |  |  |
|  |  | CN1C(=O)[C@@H]2CCCCN2C(=O)[C@H]2CCCCN2C(=O)[C@H](Cc2ccccc2)NC(=O)[C@@H](Cc2c[nH]c3ccccc23)NC(=O)[C@@H]2CCCN2C(=O)[C@H]1Cc1ccccc1 [Example 31, Cyclo[D-Tryptophanyl-L-phenylalanyl-D-pipecolyl-L-pipecolyl-D-(N^α -methyl)phenylalanyl-L-prolyl]] (cyclo(F[dPip][Pip][dNMeF]P[dW])) | 100 | > 10000 |  |  |  | > 1000 |
|  |  | CN1C(=O)[C@@H]2CCCCN2C(=O)[C@H]2CCCCN2C(=O)[C@H](CCc2ccccc2)NC(=O)[C@@H](Cc2c[nH]c3ccccc23)NC(=O)[C@@H]2CCCN2C(=O)[C@H]1Cc1ccccc1 [Example 32, Cyclo[D-trytophanyl-L-homophenylalanyl-D-pipecolyl-L-pipecolyl-D-(N^α methyl)phenylalanyl-L-prolyl]] (cyclo(P[dW][hPhe][dPip][Pip][dNMeF])) | > 1000 | > 10000 | > 10000 |  |  |  |
|  |  | CC[C@H](C)[C@@H]1NC(=O)[C@@H](Cc2c[nH]c3ccccc23)NC(=O)[C@@H]2CCCN2C(=O)[C@@H](Cc2ccc(OCc3ccccc3)cc2)N(C)C(=O)[C@@H]2CCCCN2C(=O)[C@H]2CCCCN2C1=O [Example 33, Cyclo[D-tryptophanyl-L-isoleucyl-D-pipecolyl-L-pipecolyl-D-(N^α methyl-O-benzyl)tyrosyl-L-prolyl]] (cyclo(I[dPip][Pip][dNMeY](Bn)P[dW])) | 100 | > 10000 | > 10000 |  |  |  |
|  |  | CC[C@H](C)[C@@H]1NC(=O)[C@@H](Cc2c[nH]c3ccccc23)NC(=O)[C@@H]2CCCN2C(=O)[C@@H](Cc2ccccc2)N(C)C(=O)[C@H](CCCNC(=O)OCc2ccccc2)NC(=O)[C@H]2CCCCN2C1=O [Example 34, Cyclo[D-trytophanyl-L-isoleucyl-D-pipecolyl-L-(carbobenzyloxy)ornithyl-D-(N^α methyl)phenylalanyl-L-prolyl]] (cyclo(I[dPip][Orn](Cbz)[dNMeF]P[dW])) | 100 | > 1000 | 10000 |  |  |  |
|  |  | CC[C@H](C)[C@@H]1NC(=O)[C@@H](Cc2c[nH]c3ccccc23)NC(=O)[C@@H]2CCCN2C(=O)[C@@H](Cc2ccccc2)N(C)C(=O)[C@H](CCCCNC(=O)OCc2ccccc2)NC(=O)[C@H]2CCCCN2C1=O [Example 35, Cyclo[D-tryptophanyl-L-isoleucyl-D-pipecolyl-L-(carbobenzyloxy)lysyl-D-(N^α Methyl)phenylalanyl-L-prolyl]] (cyclo(I[dPip]K(Cbz)[dNMeF]P[dW])) | > 100 | 10000 | 10000 |  |  |  |
|  |  | CC[C@H](C)[C@@H]1NC(=O)[C@@H](Cc2c[nH]c3ccccc23)NC(=O)[C@@H]2CCCN2C(=O)[C@@H](Cc2c[nH]c3ccccc23)NC(=O)[C@H](CCCNC(=O)OCc2ccccc2)NC(=O)[C@H]2CCCCN2C1=O [Example 36, Cyclo[D-tryptophanyl-L-isoleucyl-D-pipecolyl-L-(carbobenzyloxy)ornithinyl-D-trytophanyl-L-prolyl]] (cyclo(I[dPip][Orn](Cbz)[dW]P[dW])) | > 100 | > 10000 | 10000 |  |  |  |
|  |  | CC[C@H](C)[C@@H]1NC(=O)[C@@H](Cc2ccccc2)NC(=O)[C@@H]2CCCN2C(=O)[C@@H](Cc2c[nH]cn2)NC(=O)[C@H](CCCCNC(=O)OCc2ccccc2)NC(=O)[C@H]2CCCCN2C1=O [Example 37, Cyclo[D-Phenylalanyl-L-isoleucyl-D-pipecolyl-L-(carbobenzyloxy)lysyl-D-histidyl-L-prolyl]] (cyclo(I[dPip]K(Cbz)[dH]P[dF])) | > 100 | 10000 | > 10000 |  |  |  |
|  |  | CC[C@H](C)[C@@H]1NC(=O)[C@@H](Cc2c[nH]c3ccccc23)NC(=O)[C@@H]2CCCN2C(=O)[C@@H](Cc2c[nH]cn2)NC(=O)[C@H](CCCCNC(=O)OCc2ccccc2)NC(=O)[C@H]2CCCCN2C1=O [Example 38, Cyclo[D-tryptophanyl-L-isoleucyl-D-pipecolyl-L-(carbobenzyloxy)lysyl-D-histidyl-L-prolyl]] (cyclo(I[dPip]K(Cbz)[dH]P[dW])) |  | > 1000 | 10000 |  | 60 |  |
